Results on 24 compounds are retold here after patent US7384931B2, “Constrained compounds as CGRP-receptor antagonists” (Bristol-Myers Squibb Company, priority 2004, dated 2008).

Counter-ions that a name gives are not always drawn. Bounds are passed on as bounds.

For the experiment, the target named is CGRP receptor (Homo sapiens, UniProt O60894+Q16602). Kind of experiment: CGRP radioligand binding assay ([125I]-CGRP displacement, SK-N-MC homogenate). Details: endogenous in cells; host or cells: SK-N-MC cells (homogenate/membrane pellet). To be noted: displacement of [125I]-CGRP, room temperature 2 h. As for the experimental part: CGRP Binding Assay. Tissue Culture. SK—N-MC cells were grown at 37° C. in 5% CO2 as a monolayer in medium consisting of MEM with Earle's salts and L-glutamine (Gibco) supplemented with 10% fetal bovine serum (Gibco). Cell Pellets. The cells were rinsed twice with phosphate-buffered saline (155 mM NaCl, 3.3 mM Na2HPO4, 1.1 mM KH2PO4, pH 7.4), and incubated for 5-10 min. at 4° C. in hypotonic lysis buffer consisting of 10 mM Tris (pH 7.4) and 5 mM EDTA. The cells were transferred from plates to polypropylene tubes (16×100 mm) and homogenized using a polytron. Homogenates were centrifuged at 32,000×g for 30 min. The pellets were resuspended in cold hypotonic lysis buffer with 0.1% mammalian protease inhibitor cocktail (Sigma) and assayed for protein concentration. The SK—N-MC homogenate was then aliquoted and stored at −80° C. until needed.
Radioligand Binding Assay. The compounds of invention were solubilized and carried through serial dilutions using 100% DMSO. Aliquots from the compound serial dilutions were further diluted 25 fold into assay buffer (50 mM Tris-Cl pH 7.5, 5 mM MgCl2, 0.005% Triton X-100) and transferred (volume 50 μl) into 96 well assay plates. [^125I]-CGRP (Amersham Biosciences) was diluted to 60 pM in assay buffer and a volume of 50 μl was added to each well. SK—N-MC pellets were thawed, diluted in assay buffer with fresh 0.1% mammalian protease inhibitor cocktail (Sigma), and homogenized again. SK—N-MC homogenate (5 μg/well) was added in a volume of 100 μl. The assay plates were then incubated at room temperature for 2 h. Assays were stopped by addition of excess cold wash buffer (20 mM Tris-Cl pH 7.5, 0.1% BSA) immediately followed by filtration over glass fiber filters (Whatman GF/B) previously soaked in 0.5% PEI. Non-specific binding was defined with 1 μM beta-CGRP. Protein bound radioactivity was determined using a gamma or scintillation counter. The IC50 was defined as the concentration of a compound of invention required to displace 50% of radioligand binding.
In general terms: Loss of bound radioactivity is the signal in a displacement assay; it reports binding, not function.

Chain of CGRP receptor (Q16602 23-461): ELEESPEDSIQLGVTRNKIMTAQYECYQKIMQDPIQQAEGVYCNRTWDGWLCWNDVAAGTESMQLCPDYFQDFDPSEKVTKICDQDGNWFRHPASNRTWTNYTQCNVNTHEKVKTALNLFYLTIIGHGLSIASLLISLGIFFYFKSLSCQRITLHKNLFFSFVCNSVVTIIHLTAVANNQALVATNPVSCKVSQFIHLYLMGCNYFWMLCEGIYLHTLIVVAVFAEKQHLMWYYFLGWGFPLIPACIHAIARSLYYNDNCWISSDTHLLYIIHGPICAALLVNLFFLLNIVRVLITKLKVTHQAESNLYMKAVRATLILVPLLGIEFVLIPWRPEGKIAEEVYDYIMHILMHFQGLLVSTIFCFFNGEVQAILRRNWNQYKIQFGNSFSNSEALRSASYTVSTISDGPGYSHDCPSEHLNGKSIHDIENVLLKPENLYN
Chain of CGRP receptor (O60894 27-148): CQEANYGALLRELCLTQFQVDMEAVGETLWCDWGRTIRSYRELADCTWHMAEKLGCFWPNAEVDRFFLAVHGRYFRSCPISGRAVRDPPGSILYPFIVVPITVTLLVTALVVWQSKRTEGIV

Regarding “(7S)-9-Benzyl-7-(2-oxo-2-(4-(2-oxo-1,2,3,4-tetrahydroquinolin-3-yl)piperazin-1-yl)ethyl)-6,7,9,10-tetrahydroazepino[3,4-e]indazol-8(3H)-one [Example 58]”, the IC50 – broadly, the concentration that inhibits the measured activity by half – is 0.1 to 1 µM.
For `CC(C)(C)CN1Cc2c(cc(Cl)c3[nH]ncc23)C[C@@H](CC(=O)N2CCC(c3nc4ccccc4[nH]c3=O)CC2)C1=O` [Example 48, (S)-4-Chloro-9-neopentyl-7-(2-oxo-2-(4-(3-oxo-3,4-dihydroquinoxalin-2-yl)piperidin-1-yl)ethyl)-6,7,9,10-tetrahydroazepino[3,4-e]indazol-8(3H)-one] the value was 0.01 to 0.1 µM.
For `CC(C)(C)CN1Cc2c(cc(Cl)c3[nH]ncc23)C[C@@H](N/C(=N/C#N)N2CCC(c3cc4ccccc4[nH]c3=O)CC2)C1=O` [Example 99] the value was 0.0001 to 0.01 µM; for `CN1Cc2cc(O)ccc2CC(NC(=O)N2CCC(N3Cc4ccccc4NC3=O)CC2)C1=O` (stereo not drawn) [Example 32, 4-(2-Oxo-1,4-dihydro-2H-quinazolin-3-yl)-piperidine-1-carboxylic acid (8-hydroxy-2-methyl-3-oxo-2,3,4,5-tetrahydro-1H-benzo[c]azepin-4-yl)-amide], 0.1 to 1 µM; for `C[C@@H](c1ccccc1)N1Cc2c(ccc3[nH]ncc23)C[C@@H](NC(=O)N2CCC3(CC2)NC(=O)Nc2ccccc23)C1=O` [Example 9, ′^1H-Spiro[piperidine-4,4′-quinazolin]-2′(3′H)-one-1-carboxylic acid [8-oxo-9-(1-(S)-phenyl-ethyl)-3,6,7,8,9,10-hexahydro-2,3,9-triaza-(R)-cyclohepta[e]inden-7-yl]-amide], 0.1 to 1 µM.
For `CC(C)(C)CN1Cc2c(cc(Cl)c3[nH]ncc23)C[C@@H](CC(=O)N2CCC(c3cc4cccc(Cl)c4[nH]c3=O)CC2)C1=O` [Example 117] the value was 0.1 to 1 µM; for `Cc1c(N)ccc2c1CN(Cc1ccccc1)C(=O)[C@H](NC(=O)N1CCC(N3Cc4ccccc4NC3=O)CC1)C2` [Example 56, trifluoroacetate], 0.1 to 1 µM.
Compound `CN1Cc2c(cc(Cl)c(O)c2Cl)CC(NC(=O)N2CCC(N3Cc4ccccc4NC3=O)CC2)C1=O` (stereo not drawn) [Example 33, 4-(2-Oxo-1,4-dihydro-2H-quinazolin-3-yl)-piperidine-1-carboxylic acid (7,9-dichloro-8-hydroxy-2-methyl-3-oxo-2,3,4,5-tetrahydro-1H-benzo[c]azepin-4-yl)-amide] yielded an IC50 above 1 µM.
On to `CC(C)(C)CN1Cc2c(cc(Cl)c3[nH]ncc23)C[C@@H](CC(=O)N2CCC(c3cc4ccc(F)nc4[nH]c3=O)CC2)C1=O` [Example 119], for which the IC50 is above 1 µM.
As for `CC(C)(C)CN1Cc2c(ccc3[nH]ncc23)C[C@H](CC(=O)N2CCC(N3Cc4ccccc4NC3=O)CC2)C1=O` [Example 66, 9-(2,2-dimethyl-propyl)-7-(R)-{2-oxo-2-[4-(2-oxo-1,4-dihydro-2H-quinazolin-3-yl)-piperidin-1-yl]-ethyl}-6,7,9,10-tetrahydro-3H-2,3,9-triaza-cyclohepta[e]inden-8-one], the IC50 was 0.01 to 0.1 µM.
Turning to `CC(C)(C)CN1Cc2c(ccc3[nH]ncc23)C[C@@H](NC(=O)N2CCN(C3Cc4ccccc4NC3=O)CC2)C1=O` (stereo partly drawn) [Example 68, N-((R)-9-Neopentyl-8-oxo-3,6,7,8,9,10-hexahydroazepino[3,4-e]indazol-7-yl)-4-(2-oxo-1,2,3,4-tetrahydroquinolin-3-yl)piperazine-1-carboxamide], the IC50 is 0.1 to 1 µM.
In turn, `Cc1cc2c(c3cn[nH]c13)CN(CC(F)(F)F)C(=O)[C@H](CC(=O)N1CCC(c3cc4ccccc4[nH]c3=O)CC1)C2` [Example 102, (S)-4-methyl-7-(2-oxo-2-(4-(2-oxo-1,2-dihydroquinolin-3-yl)piperidin-1-yl)ethyl)-9-(2,2,2-trifluoroethyl)-6,7,9,10-tetrahydroazepino[3,4-e]indazol-8(3H)-one] showed an IC50 of 0.0001 to 0.01 µM.
For `O=C(C[C@@H]1Cc2cc(Br)c3[nH]ncc3c2CN(CC(F)(F)F)C1=O)N1CCC(c2cc3ccccc3[nH]c2=O)CC1` [Example 97, (S)-4-bromo-7-(2-oxo-2-(4-(2-oxo-1,2-dihydroquinolin-3-yl)piperidin-1-yl)ethyl)-9-(2,2,2-trifluoroethyl)-6,7,9,10-tetrahydroazepino[3,4-e]indazol-8(3H)-one] the value was 0.0001 to 0.01 µM; for `O=C(C[C@@H]1Cc2cc(Cl)c3[nH]ncc3c2CN(Cc2ccncc2)C1=O)N1CCC(c2cc(-c3ccccc3)[nH]n2)CC1` [Example 35, (S)-4-Chloro-7-(2-oxo-2-(4-(5-phenyl-1H-pyrazol-3-yl)piperidin-1-yl)ethyl)-9-(pyridin-4-ylmethyl)-6,7,9,10-tetrahydroazepino[3,4-e]indazol-8(3H)-one], 0.01 to 0.1 µM.
For `CC(C)(C)CN1Cc2c(cc(Cl)c3[nH]ncc23)C[C@@H](CC(=O)N2CCC(c3ccc(Cl)cc3Cl)CC2)C1=O` [Example 93, (S)-4-chloro-7-(2-(4-(2,4-dichlorophenyl)piperidin-1-yl)-2-oxoethyl)-9-neopentyl-6,7,9,10-tetrahydroazepino[3,4-e]indazol-8(3H)-one] the value was 0.1 to 1 µM; for `CC(C)N1Cc2c(ccc3[nH]ncc23)C[C@@H](NC(=O)N2CCC(N3Cc4ccccc4NC3=O)CC2)C1=O` [Example 15, 4-(2-Oxo-1,4-dihydro-2H-quinazolin-3-yl)-piperidine-1-carboxylic acid (9-isopropyl-8-oxo-3,6,7,8,9,10-hexahydro-2,3,9-triaza-(R)-cyclohepta[e]inden-7-yl)-amide], 0.01 to 0.1 µM.
For `CC(C)c1cc2c(c3cn[nH]c13)CN(CC(F)(F)F)C(=O)[C@H](CC(=O)N1CCC(c3cc4cccc(F)c4[nH]c3=O)CC1)C2` [Example 107, (S)-7-(2-(4-(8-fluoro-2-oxo-1,2-dihydroquinolin-3-yl)piperidin-1-yl)-2-oxoethyl)-4-isopropyl-9-(2,2,2-trifluoroethyl)-6,7,9,10-tetrahydroazepino[3,4-e]indazol-8(3H)-one] the value was 0.1 to 1 µM; for `CC(C)(C)CN1Cc2c(ccc3[nH]ncc23)C[C@@H](CC(=O)N2CCC(c3cnc4ccccc4c3)CC2)C1=O` [Example 72, 1-[[7-(S)-9-(2,2-Dimethylpropyl)-3,6,7,8,9,10-hexahydro-8-oxoazepino[3,4-e]indazol-7-yl]acetyl]-4-(3-quinolinyl)piperidine], above 1 µM; for `CC(C)(C)CN1Cc2c(cc(Cl)c3[nH]ncc23)C[C@@H](CC(=O)Nc2ccc3c(c2)CC2(C3)NC(=O)NC2=O)C1=O` (mixture of isomers) [Example 87, (±)-1-[[(7S)-4-chloro-9-(2,2-dimethylpropyl)-3,6,7,8,9,10-hexahydro-8-oxoazepino[3,4-e]indazol-7-yl]acetyl]-Amino-spiro[imidazolidine-4,2′-indane]-2,5-dione], 0.01 to 0.1 µM.
`Cc1cc2c(c3cn[nH]c13)CN(CC(C)(C)C)C(=O)[C@H](CC(=O)N1CCC(c3cc4cccc(F)c4[nH]c3=O)CC1)C2` [Example 101, (S)-7-(2-(4-(8-fluoro-2-oxo-1,2-dihydroquinolin-3-yl)piperidin-1-yl)-2-oxoethyl)-4-methyl-9-neopentyl-6,7,9,10-tetrahydroazepino[3,4-e]indazol-8(3H)-one] had an IC50 of 0.01 to 0.1 µM.
The compound `O=C(N[C@@H]1Cc2ccc3[nH]ncc3c2CN(C2CCNCC2)C1=O)N1CCC(N2Cc3ccccc3NC2=O)CC1` [Example 18, 4-(2-Oxo-1,4-dihydro-2H-quinazolin-3-yl)-piperidine-1-carboxylic acid (8-oxo-9-piperidin-4-yl-3,6,7,8,9,10-hexahydro-2,3,9-triaza-(R)-cyclohepta[e]inden-7-yl)-amide] returned an IC50 of 0.1 to 1 µM.
For `O=C(N[C@@H]1Cc2ccc3[nH]ncc3c2CN(C2CCNC2)C1=O)N1CCC(N2Cc3ccccc3NC2=O)CC1` (stereo partly drawn) [Example 63, 4-(2-oxo-1,2-dihydroquinazolin-3(4H)-yl)-N-((R)-8-oxo-9-(pyrrolidin-3-yl)-3,6,7,8,9,10-hexahydroazepino[3,4-e]indazol-7-yl)piperidine-1-carboxamide] the value was 0.1 to 1 µM; for `O=C(C[C@@H]1Cc2cc(Cl)c3[nH]ncc3c2CN(Cc2ccncc2)C1=O)N1CCC(c2cc3cccc(F)c3[nH]c2=O)CC1` [Example 51, (S)-4-Chloro-7-(2-(4-(8-fluoro-2-oxo-1,2-dihydroquinolin-3-yl)piperidin-1-yl)-2-oxoethyl)-9-(pyridin-4-ylmethyl)-6,7,9,10-tetrahydroazepino[3,4-e]indazol-8(3H)-one], 0.0001 to 0.01 µM; for `Cc1cc2c(c3cn[nH]c13)CN(CC(C)(C)C)C(=O)[C@H](CC(=O)N1CCC(c3cc4ccccc4[nH]c3=O)CC1)C2` [Example 100, (S)-4-methyl-9-neopentyl-7-(2-oxo-2-(4-(2-oxo-1,2-dihydroquinolin-3-yl)piperidin-1-yl)ethyl)-6,7,9,10-tetrahydroazepino[3,4-e]indazol-8(3H)-one], 0.0001 to 0.01 µM.
